Measurements from ChEMBL document CHEMBL3228022, “Synthesis of 2,3,4,4a,5,9b-hexahydro-1H-pyrido[4,3-b]indole derivatives and their central nervous system activities” (1979).
Active and inactive are the calls of the source. The rule behind the calls is not given here.

Tests used:
Mus musculus [1] = test: Neuroleptic activity in STD-ddy mouse assessed as inhibition of locomotion at 100 mg/kg, po measured for 3 mins; assay type: functional; conditions: 0.05 h
Mus musculus [2] = test: Neuroleptic activity in STD-ddy mouse assessed as muscle relaxation at 100 mg/kg, po after 20 mins; assay type: functional, organism-based; parameters: dose 100 mg/kg
Mus musculus [3] = test: Neuroleptic activity in STD-ddy mouse assessed as catalepsy at 100 mg/kg, po measured up to 30 secs; assay type: functional, organism-based; parameters: dose 100 mg/kg
Rattus norvegicus [4] = test: Neuroleptic activity in Wistar HLA rat assessed as inhibition of methamphetamine-induced stereotyped behavior at 1 mg/kg, ip administered 20 mins before methamphetamine challenge measured every 30 mins for 3 hrs followed by every 1 hr for further 3 hrs; assay type: functional; parameters: Activity: scale not given: the % may be the effect or the level left; conditions: route intraperitoneal
Mus musculus [5] = test: Neuroleptic activity in STD-ddy mouse assessed as inhibition of locomotion at 10 mg/kg, po measured for 3 mins; assay type: functional; conditions: 0.05 h
Rattus norvegicus [6] = test: Neuroleptic activity in Wistar HLA rat assessed as inhibition of methamphetamine-induced stereotyped behavior at 2 mg/kg, ip administered 20 mins before methamphetamine challenge measured every 30 mins for 3 hrs followed by every 1 hr for further 3 hrs; assay type: functional; parameters: Activity: scale not given: the % may be the effect or the level left; conditions: route intraperitoneal
Rattus norvegicus [7] = test: Neuroleptic activity in Wistar HLA rat assessed as inhibition of methamphetamine-induced stereotyped behavior at 10 mg/kg, ip administered 20 mins before methamphetamine challenge measured every 30 mins for 3 hrs followed by every 1 hr for further 3 hrs; assay type: functional; parameters: Activity: scale not given: the % may be the effect or the level left; conditions: route intraperitoneal; for inhibition in vivo at 10 mg/kg: Rattus norvegicus, Wistar HLA, ip
Rattus norvegicus [8] = test: Neuroleptic activity in Wistar HLA rat assessed as inhibition of methamphetamine-induced stereotyped behavior at 5 mg/kg, ip administered 20 mins before methamphetamine challenge measured every 30 mins for 3 hrs followed by every 1 hr for further 3 hrs; assay type: functional; parameters: Activity: scale not given: the % may be the effect or the level left; conditions: route intraperitoneal
Rattus norvegicus [9] = test: Neuroleptic activity in sc dosed Wistar HLA rat assessed as inhibition of apomorphine-induced gnawing administered 1 hr before apomorphine challenge measured 5 to 20 mins; assay type: functional
Rattus norvegicus [10] = test: Neuroleptic activity in ip dosed Wistar HLA rat assessed as inhibition of intracranial self-stimulation measured for 1 to 24 hrs; assay type: functional
Mus musculus [11] = test: Neuroleptic activity in po dosed STD-ddy mouse assessed as inhibition of locomotion measured for 3 mins; assay type: functional; conditions: 0.05 h
Mus musculus [12] = test: Neuroleptic activity in po dosed STD-ddy mouse assessed as inhibition of methamphetamine-induced stereotyped behavior administered 100 mins before methamphetamine challenge measured for 20 mins; assay type: functional
Mus musculus [13] = test: Neuroleptic activity in po dosed STD-ddy mouse assessed as catalepsy measured up to 30 secs; assay type: functional
Mus musculus [14] = test: Neuroleptic activity in po dosed STD-ddy mouse assessed as inhibition of active avoidance; assay type: functional
Rattus norvegicus [15] = test: Neuroleptic activity in po dosed Wistar HLA rat assessed as inhibition of intracranial self-stimulation measured for 1 to 24 hrs; assay type: functional
Rattus norvegicus [16] = test: Neuroleptic activity in Wistar HLA rat assessed as stimulation of methamphetamine-induced stereotyped behavior at 10 mg/kg, ip administered 20 mins before methamphetamine challenge measured every 30 mins for 3 hrs followed by every 1 hr for further 3 hrs; assay type: functional; conditions: route intraperitoneal
Rattus norvegicus [17] = test: Neuroleptic activity in Wistar HLA rat assessed as stimulation of methamphetamine-induced stereotyped behavior at 5 mg/kg, ip administered 20 mins before methamphetamine challenge measured every 30 mins for 3 hrs followed by every 1 hr for further 3 hrs; assay type: functional; conditions: route intraperitoneal
Rattus norvegicus [18] = test: Neuroleptic activity in Wistar HLA rat assessed as stimulation of methamphetamine-induced stereotyped behavior at 2 mg/kg, ip administered 20 mins before methamphetamine challenge measured every 30 mins for 3 hrs followed by every 1 hr for further 3 hrs; assay type: functional; conditions: route intraperitoneal
[19] = Rattus norvegicus, Wistar HLA, ip

CC(=O)CCN1CC[C@H]2Nc3ccc(C)cc3[C@H]2C1 (relative stereo)
inhibition in vivo at 100 mg/kg (Mus musculus [1]): 38.8% | Activity (Mus musculus [2]): inactive | Activity (Mus musculus [3]): inactive

COc1ccc2c(c1)[C@H]1CN(CCCC(=O)c3ccc(F)cc3)CC[C@H]1N2.Cl (relative stereo)
Activity (Rattus norvegicus [4]): 0% | inhibition in vivo at 100 mg/kg (Mus musculus [1]): 96.7% | inhibition in vivo at 10 mg/kg (Mus musculus [5]): 61.7% | Activity (Mus musculus [2]): Active | Activity (Rattus norvegicus [6]): 0% | inhibition in vivo at 10 mg/kg (Rattus norvegicus [7]): 25% | Activity (Rattus norvegicus [8]): 0%

CN(C)CCCN1c2ccccc2Sc2ccc(Cl)cc21 [CHLORPROMAZINE]
inhibition in vivo at 100 mg/kg (Mus musculus [1]): 97.4% | ED50 (Rattus norvegicus [9]): 3.25 mg/kg | inhibition in vivo at 10 mg/kg (Mus musculus [5]): 67.6% | Activity (Mus musculus [2]): Active | ED50 (Rattus norvegicus [10]): 2.1 mg/kg | ED50 (Mus musculus [11]): 7.42 mg/kg | Activity (Mus musculus [3]): Active | ED50 (Mus musculus [12]): 13.3 mg/kg | Activity (Rattus norvegicus [6]): 0% | inhibition in vivo at 10 mg/kg (Rattus norvegicus [7]): > 75% | Activity (Rattus norvegicus [8]): 50% | ED50 (Mus musculus [13]): 9.97 mg/kg | ED50 (Mus musculus [14]): 5.59 mg/kg

Cc1ccc2c(c1)[C@H]1CN(CCCC(=O)c3ccc(F)cc3)CC[C@@H]1N2.Cl (relative stereo)
Activity (Rattus norvegicus [4]): 25% | inhibition in vivo at 100 mg/kg (Mus musculus [1]): 86.5% | ED50 (Rattus norvegicus [15]): 6.28 mg/kg | ED50 (Mus musculus [11]): 9.73 mg/kg | inhibition in vivo at 2 mg/kg (Rattus norvegicus [6]; [19]): 50% | inhibition in vivo at 10 mg/kg (Rattus norvegicus [7]): > 75% | inhibition in vivo at 5 mg/kg (Rattus norvegicus [8]; [19]): > 75% | ED50 (Mus musculus [13]): 7.18 mg/kg | ED50 (Mus musculus [14]): 9.73 mg/kg

CCN1CC[C@H]2Nc3ccc(C)cc3[C@H]2C1 (mixture of isomers)
inhibition in vivo at 100 mg/kg (Mus musculus [1]): 54.7% | Activity (Mus musculus [3]): inactive

Cc1ccc2[nH]c3c(c2c1)CN(CCCC(=O)c1ccc(F)cc1)CC3.Cl
Activity (Rattus norvegicus [4]): 0% | Activity (Rattus norvegicus [6]): 0% | Activity (Rattus norvegicus [7]): 0% | Activity (Rattus norvegicus [8]): 0%

Cl.O=C(CCCN1CC[C@H]2Nc3ccccc3[C@H]2C1)c1ccc(F)cc1 (relative stereo)
Activity (Rattus norvegicus [4]): 0% | inhibition in vivo at 100 mg/kg (Mus musculus [1]): 77.7% | inhibition in vivo at 10 mg/kg (Mus musculus [5]): -6% | Activity (Rattus norvegicus [6]): 0% | inhibition in vivo at 10 mg/kg (Rattus norvegicus [7]): 25% | Activity (Rattus norvegicus [8]): 0%

Cc1ccc2c(c1)[C@H]1CN(Cc3ccccc3)CC[C@H]1N2 (relative stereo)
inhibition in vivo at 100 mg/kg (Mus musculus [1]): 35.3% | Activity (Mus musculus [2]): inactive | Activity (Mus musculus [3]): inactive

Cc1ccc2c(c1)[C@H]1CN(CCCC(c3ccc(F)cc3)c3ccc(F)cc3)CC[C@H]1N2 (relative stereo)
inhibition in vivo at 100 mg/kg (Mus musculus [1]): 90.7% | inhibition in vivo at 10 mg/kg (Mus musculus [5]): -73% | Activity (Mus musculus [2]): inactive

Cc1ccc2c(c1)[C@H]1CN(CCO)CC[C@H]1N2 (relative stereo)
inhibition in vivo at 100 mg/kg (Mus musculus [1]): 30.7% | Activity (Mus musculus [2]): inactive | Activity (Mus musculus [3]): inactive

Cl.O=C(CCCN1CC[C@@H]2Nc3ccc(F)cc3[C@H]2C1)c1ccc(F)cc1 (relative stereo)
inhibition in vivo at 100 mg/kg (Mus musculus [1]): 92.2% | ED50 (Rattus norvegicus [15]): 4.54 mg/kg | ED50 (Mus musculus [11]): 7.12 mg/kg | ED50 (Mus musculus [13]): 8.08 mg/kg | ED50 (Mus musculus [14]): 5.19 mg/kg

Cc1ccc2c(c1)[C@H]1CN(CCCC(=O)c3ccc(F)cc3)CC[C@H]1N2C.Cl (relative stereo)
Activity (Rattus norvegicus [4]): 0% | Activity (Rattus norvegicus [16]): 50% | inhibition in vivo at 100 mg/kg (Mus musculus [1]): 95.8% | inhibition in vivo at 10 mg/kg (Mus musculus [5]): 55.8% | Activity (Rattus norvegicus [17]): 50% | ED50 (Rattus norvegicus [15]): 30 mg/kg | ED50 (Mus musculus [11]): 10.2 mg/kg | Activity (Mus musculus [3]): Active | Activity (Rattus norvegicus [6]): 0% | ED50 (Mus musculus [13]): 40.3 mg/kg | ED50 (Mus musculus [14]): 20.1 mg/kg

Cc1ccc2c(c1)[C@H]1CN(CCCN(C)C)CC[C@H]1N2 (relative stereo)
inhibition in vivo at 100 mg/kg (Mus musculus [1]): 12.3% | Activity (Mus musculus [2]): inactive | Activity (Mus musculus [3]): inactive

Cc1ccc2c(c1)[C@H]1CN(CCCC(=O)c3ccc(F)cc3)CC[C@H]1N2.Cl (relative stereo)
Activity (Rattus norvegicus [4]): 0% | Activity (Rattus norvegicus [16]): 50% | inhibition in vivo at 100 mg/kg (Mus musculus [1]): 97.8% | ED50 (Rattus norvegicus [9]): 16.5 mg/kg | inhibition in vivo at 10 mg/kg (Mus musculus [5]): 75.9% | Activity (Rattus norvegicus [18]): 50% | Activity (Rattus norvegicus [17]): >75% | Activity (Mus musculus [2]): Active | ED50 (Mus musculus [11]): 9.3 mg/kg | Activity (Mus musculus [3]): Active | ED50 (Mus musculus [12]): 23.8 mg/kg | ED50 (Mus musculus [13]): 15.3 mg/kg | ED50 (Mus musculus [14]): 10 mg/kg
